Assay results taken from patent US20260265273A1, “SOLID FORM OF FUSED RING COMPOUND, AND PREPARATION METHOD THEREFOR AND USE THEREOF” (APPLIED PHARMACEUTICAL SCIENCE, INC., priority 2022, published 2026).

How the values were obtained:
[1] = Solid-state stability test (XRPD, HPLC purity); format: physicochemical
[2] = Hygroscopicity test (DVS); format: physicochemical
Protocol: Dynamic vapor sorption (DVS) curves were acquired on a DVS Intrinsic in SMS (Surface Measurement Systems). The relative humidity at 25° C. was corrected with the deliquescence points of LiCl, Mg(NO3)2, and KCl.

[3] = Pharmacokinetic experiment in SD rats; format: in vivo; conditions: oral intragastric 10 mg/kg, 1 mg/mL in 5% DMSO in normal saline, compound I in plasma, 0.25-24 h
Protocol: Six SPF-grade SD rats were prepared and weighed before administration. The dose of administration was calculated based on the weight. […] These administration solutions were orally and intragastrically administered at 10 mg/kg. The rats were weighed before administration, and the dose of administration was calculated based on the weight. 3 rats were used for each crystal form. The administration solutions were orally and intragastrically administered, followed by collection of samples via the jugular vein or other suitable means at the following time points: 0.25 […], and 24 h. About 0.20 mL of each sample was collected, and the plasma was separated out by centrifugation within 2 h. The compound I was detected, and plasma drug concentration-time curves were plotted. The pharmacokinetic parameters were calculated by utilizing WinNonlin according to the plasma concentration data at different time points.

[4] = Solubility Test II (saturated solubility by HPLC); format: physicochemical; conditions: 37° C., 24 h
Protocol: Chromatographic column: Waters XTERRA RP18, 4.6 mm×150 mm, 3.5 μm or an equivalent chromatographic column. […] The gradient elution conditions are shown in Table 3-2. pH 4.5 acetate buffer: 0.59806 g of sodium acetate trihydrate was added to a 200-mL measuring flask and dissolved in an appropriate amount of water; 1.6 mL of glacial acetic acid was added; and the mixture was diluted to volume to obtain the pH 4.5 acetate buffer. pH 6.8 phosphate buffer: 1.38501 g of potassium dihydrogen phosphate and 0.18086 g of sodium hydroxide were added to the same 200-mL measuring flask; and the mixture was dissolved in water and diluted to volume to obtain the pH 6.8 phosphate buffer. 10.0 mL of each medium was precisely measured, and the media were placed into different 25-mL measuring flasks; an appropriate amount of each test crystal form was added; and the flasks were sealed and oscillated in an oscillator at 37° C. for 24 h to obtain supersaturated solutions. pH 6.8 phosphate buffer sample solution: the supersaturated solution prepared using the pH 6.8 phosphate buffer medium was filtered to obtain the pH 6.8 phosphate buffer sample solution. Water sample solution: the supersaturated solution prepared using the water medium was filtered to obtain the water sample solution. pH 4.5 acetate buffer sample solution: the supersaturated solution prepared using the pH 4.5 acetate buffer medium was filtered, and 1.0 mL of the filtrate was precisely measured and placed into a 10-mL measuring flask; the filtrate was diluted to volume with the pH 4.5 acetate buffer medium, and 1.0 mL of the solution was then precisely measured and placed into the 10-mL measuring flask; and the solution was diluted to volume with methanol to obtain the pH 4.5 acetate buffer sample solution. (ii) Preparation of crystal form A sample solution: pH 6.8 phosphate buffer sample solution: the supersaturated solution prepared using the pH 6.8 phosphate buffer medium was filtered to obtain the pH 6.8 phosphate buffer sample solution. Water sample solution: the supersaturated solution prepared using the water medium was filtered to obtain the water sample solution. pH 4.5 acetate buffer sample solution: the supersaturated solution prepared using the pH 4.5 acetate buffer medium was filtered, and 1.0 mL of the filtrate was precisely measured and placed into a 10-mL measuring flask; the filtrate was diluted to volume with the pH 4.5 acetate buffer medium, and 1.0 mL of the solution was then precisely measured and placed into a 25-mL measuring flask; and the solution was diluted to volume with methanol to obtain the pH 4.5 acetate buffer sample solution. Each medium sample solution was taken, 10 μL of each test sample solution was precisely measured and injected into a liquid chromatograph according to the chromatography conditions described above, and the chromatogram was recorded. The saturated solution degree of each medium was calculated according to the formula below. In the formula: WR=sample weight of control solution, mg; PR=purity factor of control; • AS=peak area of main peak in test solution: DS=dilution factor of test solution; • AR=peak area of main peak in control solution; DR=dilution factor of control solution;

[5] = Crystal form change on drying or standing at room conditions; format: physicochemical
Protocol: 20 mg of the amorphous form Z prepared according to the method in Example 1 was weighed into a 3-mL vial. The solid was dissolved in 1.0-1.5 mL of solvent NMP (N-methylpyrrolidone), and the resulting mixture was filtered through a filter membrane to obtain a clear solution. About 4 mL of anti-solvent ACN was added to a 20-mL vial. The uncovered 3-mL vial containing the filtrate was placed into the 20-mL vial, and then the 20-mL vial was sealed and allowed to stand at room temperature. The solid was precipitated and collected to obtain the crystal form I. The X-ray powder diffraction pattern of this crystal form is shown in FIG. 9.
After drying in the air, the crystal form P was transformed to the anhydrous crystal form C. Thus, the crystal form P was determined to be a hydrate.

[6] = 1H-NMR analysis of salt crystal forms; format: physicochemical; conditions: DMSO-d6
Protocol: 1 g of the amorphous form Z prepared according to the method in Example 1 was weighed into a vial, and 14 mL of trichloromethane was added; the mixture was stirred at 35° C. for complete dissolution to obtain a solution 1; 102.64 mg of maleic acid was completely dissolved in 2 mL of ethanol to obtain a solution 2; 551 μL of the solution 2 was added to 0.7 mL of the solution 1 with stirring at room temperature, and no solid was precipitated; the mixture was stirred for 5 h and then placed at 4-8° C. overnight, and no solid was precipitated; 0.8 mL of methyl tert-butyl ether was added to obtain a turbid solution, and the turbid solution was stirred to obtain an oil; 0.4 mL of methyl tert-butyl ether was supplemented; and the mixture was successively stirred overnight, centrifuged, and dried in vacuum at 25° C. to obtain the crystal form T. The X-ray powder diffraction pattern of this crystal form is shown in FIG. 24A. […]

[7] = 25° C./60% RH/uncovered, 2 weeks
[8] = 25° C./60% RH/uncovered, 4 weeks
[9] = 25° C./60% RH/uncovered, 6 weeks
[10] = 40° C./75% RH/uncovered, 2 weeks
[11] = 40° C./75% RH/uncovered, 4 weeks
[12] = 40° C./75% RH/uncovered, 6 weeks
[13] = DVS, isothermal adsorption curve

## CCOc1cc(-c2ccc(N3CC4CC(C3)N4Cc3ccc(OC)nc3)nc2)c2c3cn[nH]c3nn2c1 (single isomer, unassigned) [Crystal form B]
[1]; [7]
  Purity (area %): 99.96 area %
  Relative to initial purity (%): 100.01%
[1]; [8]
  Purity (area %): 99.96 area %
  Relative to initial purity (%): 100.01%
[1]; [9]
  Purity (area %): 99.96 area %
  Relative to initial purity (%): 100.01%
[1]; [10]
  Purity (area %): 99.96 area %
  Relative to initial purity (%): 100.01%
[1]; 40° C./75% RH/uncovered, 2 weeks, XRPD
  Crystal form change: No change
[1]; [11]
  Purity (area %): 99.96 area %
  Relative to initial purity (%): 100.01%
[1]; [12]
  Purity (area %): 99.96 area %
  Relative to initial purity (%): 100.01%
[1]; 60° C./sealed, 24 h
  Purity (area %): 99.97 area %
  Relative to initial purity (%): 100.01%
[1]; all stability conditions (60° C. sealed 24 h; 25° C./60% RH and 40° C./75% RH uncovered 2, 4, 6 weeks)
  HPLC purity under the test conditions: not significantly reduced
[1]; all stability conditions, XRPD
  crystal form under the test conditions: not changed
[2]; DVS at 25° C., 0% RH-95% RH, according to Chinese Pharmacopoeia 2015 Edition
  hygroscopicity evaluation: slightly hygroscopic
[2]; DVS, 25° C./80% RH, listed as crystal form B
  hygroscopic weight gain: about 1.0%
[2]; after DVS test
  crystal form after the DVS test (XRPD): not changed
[3]
  AUC(0-t): 10424 ng·h/mL
[4]; Water
  Saturated solubility: 0.34 µg/mL
[4]; pH 4.5 acetate buffer, listed as crystal form B
  Saturated solubility: 3107.54 µg/mL
[4]; pH 6.8 phosphate buffer
  Saturated solubility: 0.02 µg/mL

## CCOc1cc(-c2ccc(N3CC4CC(C3)N4Cc3ccc(OC)nc3)nc2)c2c3cn[nH]c3nn2c1 [crystal form I]
[5]; drying at room temperature
  crystal form after drying: transformed to the crystal form A

## CCOc1cc(-c2ccc(N3CC4CC(C3)N4Cc3ccc(OC)nc3)nc2)c2c3cn[nH]c3nn2c1 [crystal form P]
[5]; placed in the air for about 10 min
  crystal form of the wet sample after standing: transformation to the crystal form C

## CCOc1cc(-c2ccc(N3CC4CC(C3)N4Cc3ccc(OC)nc3)nc2)c2c3cn[nH]c3nn2c1 [crystal form Q]
[5]; placed at room temperature and room humidity
  crystal form after standing: transferred to the hydrate crystal form M

## CCOc1cc(-c2ccc(N3CC4CC(C3)N4Cc3ccc(OC)nc3)nc2)c2c3cn[nH]c3nn2c1 [crystal form R]
[2]; [13]
  RH at which the form started to significantly absorb water and underwent polymorphic transition to hydrate crystal form S: 50 % RH

## CCOc1cc(-c2ccc(N3CC4CC(C3)N4Cc3ccc(OC)nc3)nc2)c2c3cn[nH]c3nn2c1 [crystal form S]
[2]; [13]
  RH at which the form started to dehydrate and underwent polymorphic transition to anhydrous crystal form R: 40 % RH

## CCOc1cc(-c2ccc(N3CC4CC(C3)N4Cc3ccc(OC)nc3)nc2)c2c3cn[nH]c3nn2c1 [crystal form T]
[6]
  stability in the 1H-NMR analysis: decomposition occurred
